Earlier results in patent US20240000789A1, “THERAPEUTIC COMBINATIONS COMPRISING A CRAF INHIBITOR” (NOVARTIS AG, priority 2020, published 2024).
Read-outs that look alike come from different tables or passages of the source.

System: advanced NRAS-mutant melanoma
Conditions: cited from earlier work; for ORR (overall response rate): NEMO phase 3, NRAS-mutant melanoma patients

Row | SMILES | ORR (overall response rate) [%] | ORR (overall response rate) (listed as binimetinib) [%] | DOR (NEMO phase 3) [months] | PFS (NEMO phase 3) [months] | discontinuation rate as a result of adverse events suspected to be related to study drug (NEMO phase 3) [%] | mOS (NEMO phase 3) [months]
1 | Cn1cnc2c(F)c(Nc3ccc(Br)cc3F)c(C(=O)NOCCO)cc21 [Binimetinib] | 15 | 15 | 6.9 | 2.8 | 20 | 11
2 | CN(C)/N=N/c1[nH]cnc1C(N)=O [Dacarbazine] |  |  |  |  | 5 | 
